The values below come from ChEMBL document CHEMBL6074659, “Development of an Intravenously Stable Disulfide-Rich Peptide for the Treatment of Chemotherapy-Induced Neuropathic Pain” (J Med Chem, 2024).

Starred links: 1 amine or outer side, 2 acyl side, 3 side chain; linkers in the order of their positions; H or OH if unused. Positions of bridges follow the written chain, without caps; N, C: chain ends. Non-standard residues stand in square brackets, D forms with d. Residues, ends and D or L forms follow the SMILES beside them. Triazole bridges read from a SMILES are 1,4-linked. Aha = [N-]=[N+]=NCC[C@H](N)C(=O)O; Pra = C#CC[C@H](N)C(=O)O; Dap = NC[C@H](N)C(=O)O; CH2 = C([*:1])[*:2]

Data set [1] concerns the target Neuronal acetylcholine receptor; alpha9/alpha10 (Homo sapiens) (UniProt Q9UGM1+Q9GZZ6). As to the kind of experiment: Antagonist activity at human alpha9alpha10 nAChR expressed in acetylcholine-induced Xenopus laevis oocytes assessed as inhibition of acetylcholine-induced current at 10 nM at -80 mV holding potential incubated for 5 mins by two electrode voltage-clamp assay relative to control. Type of data set: cell-based. To be noted: Oocyte. In general terms: Two-electrode voltage clamp is typically applied to oocytes expressing channels or transporters.

Data set [2] in a line: Stability in human serum assessed as parent compound remaining incubated at 24 hrs by RP-HPLC analysis. It counts as ADME, cell-free. To be noted: human serum, read-out: Stability.

One may read the inhibition as the percentage by which the read-out fell short of the control. In the case of `CC[C@H](C)[C@@H]1NC(=O)[C@H](CC(=O)O)NC(=O)[C@@H]2CCCN2C(=O)[C@H](CC(N)=O)NC(=O)[C@H](CC(N)=O)NC(=O)[C@H](C(C)C)NC(=O)[C@H](CO)NC(=O)[C@@H]2CSSC[C@@H]3NC(=O)CNC(=O)CNC(=O)CNC(=O)[C@H](C)NC(=O)[C@H](C)NC(=O)CNC(=O)CNC(=O)[C@H](CSSC[C@H](NC3=O)C(=O)N[C@@H](CN)C(=O)N[C@@H](Cc3cnc[nH]3)C(=O)N3CCC[C@H]3C(=O)N[C@@H](C)C(=O)N2)NC1=O` (HELM PEPTIDE1{A.A.G.G.G.C.C.[NC[C@H](N[*:1])C(=O)[*:2]].H.P.A.C.S.V.N.N.P.D.I.C.G.G}$PEPTIDE1,PEPTIDE1,6:R3-12:R3|PEPTIDE1,PEPTIDE1,7:R3-20:R3|PEPTIDE1,PEPTIDE1,1:R1-22:R2$$$V2.0), the inhibition in data set [1] (filed as antagonist) was above 85%. In data set [2], the remaining at 24 h worked out at 43.3%.
Turning to `CC[C@H](C)[C@@H]1NC(=O)[C@H](CC(=O)O)NC(=O)[C@@H]2CCCN2C(=O)[C@H](CC(N)=O)NC(=O)[C@H](CC(N)=O)NC(=O)[C@H](C(C)C)NC(=O)[C@H](CO)NC(=O)[C@@H]2CSSC[C@@H]3NC(=O)CNC(=O)[C@@H](N)CCNC(=O)C[C@@H](C(N)=O)NC(=O)[C@H](CSSC[C@H](NC3=O)C(=O)N[C@@H](CN)C(=O)N[C@@H](Cc3cnc[nH]3)C(=O)N3CCC[C@H]3C(=O)N[C@@H](C)C(=O)N2)NC1=O` (HELM PEPTIDE1{[Dab].G.C.C.[NC[C@H](N[*:1])C(=O)[*:2]].H.P.A.C.S.V.N.N.P.D.I.C.D.[am]}$PEPTIDE1,PEPTIDE1,1:R3-18:R3|PEPTIDE1,PEPTIDE1,3:R3-9:R3|PEPTIDE1,PEPTIDE1,4:R3-17:R3$$$V2.0), in data set [1], the inhibition is below 5%.
Turning to `CC[C@H](C)[C@@H]1NC(=O)[C@H](CC(=O)O)NC(=O)[C@@H]2CCCN2C(=O)[C@H](CC(N)=O)NC(=O)[C@H](CC(N)=O)NC(=O)[C@H](C(C)C)NC(=O)[C@H](CO)NC(=O)[C@@H]2CSSC[C@H](NC(=O)CN)C(=O)N[C@@H](CCn3cc(nn3)C[C@@H](C(N)=O)NC1=O)C(=O)N[C@@H](CN)C(=O)N[C@@H](Cc1cnc[nH]1)C(=O)N1CCC[C@H]1C(=O)N[C@@H](C)C(=O)N2` (H-GC[Aha][Dap]HPACSVNNPDI[Pra]-NH2; disulfide 2-8; triazole 3-16), the inhibition in data set [1] is below 15%.
In the case of `CC[C@H](C)[C@@H]1NC(=O)[C@H](CC(=O)O)NC(=O)[C@@H]2CCCN2C(=O)[C@H](CC(N)=O)NC(=O)[C@H](CC(N)=O)NC(=O)[C@H](C(C)C)NC(=O)[C@H](CO)NC(=O)[C@@H]2CSSC[C@H](NC(=O)CN)C(=O)N[C@@H](CCC(=O)NC[C@@H](C(N)=O)NC1=O)C(=O)N[C@@H](CN)C(=O)N[C@@H](Cc1cnc[nH]1)C(=O)N1CCC[C@H]1C(=O)N[C@@H](C)C(=O)N2` (HELM PEPTIDE1{G.C.E.[NC[C@H](N[*:1])C(=O)[*:2]].H.P.A.C.S.V.N.N.P.D.I.[O=C([C@H](CN[*:3])N[*:1])[*:2]].[am]}$PEPTIDE1,PEPTIDE1,2:R3-8:R3|PEPTIDE1,PEPTIDE1,3:R3-16:R3$$$V2.0), the remaining at 24 h in data set [2] was 57.3%.
Take `CC[C@H](C)[C@@H]1NC(=O)[C@H](CC(=O)O)NC(=O)[C@@H]2CCCN2C(=O)[C@H](CC(N)=O)NC(=O)[C@H](CC(N)=O)NC(=O)[C@H](C(C)C)NC(=O)[C@H](CO)NC(=O)[C@@H]2CSSC[C@H](NC(=O)CN)C(=O)N[C@@H](CCNC(=O)C[C@@H](C(N)=O)NC1=O)C(=O)N[C@@H](CN)C(=O)N[C@@H](Cc1cnc[nH]1)C(=O)N1CCC[C@H]1C(=O)N[C@@H](C)C(=O)N2` (HELM PEPTIDE1{G.C.[Dab].[NC[C@H](N[*:1])C(=O)[*:2]].H.P.A.C.S.V.N.N.P.D.I.D.[am]}$PEPTIDE1,PEPTIDE1,2:R3-8:R3|PEPTIDE1,PEPTIDE1,3:R3-16:R3$$$V2.0): the inhibition in data set [1] was below 5%.
Same read-out and setting: next, `CC[C@H](C)[C@@H]1NC(=O)[C@H](CC(=O)O)NC(=O)[C@@H]2CCCN2C(=O)[C@H](CC(N)=O)NC(=O)[C@H](CC(N)=O)NC(=O)[C@H](C(C)C)NC(=O)[C@H](CO)NC(=O)[C@@H]2CSCSC[C@@H]3NC(=O)CNC(=O)[C@@H](N)CCC(=O)NCC[C@@H](C(N)=O)NC(=O)[C@H](CSSC[C@H](NC3=O)C(=O)N[C@@H](CN)C(=O)N[C@@H](Cc3cnc[nH]3)C(=O)N3CCC[C@H]3C(=O)N[C@@H](C)C(=O)N2)NC1=O` (HELM PEPTIDE1{E.G.C.C.[NC[C@H](N[*:1])C(=O)[*:2]].H.P.A.C.S.V.N.N.P.D.I.C.[Dab].[am]}|CHEM1{[C([*:1])[*:2]]}$PEPTIDE1,PEPTIDE1,1:R3-18:R3|PEPTIDE1,CHEM1,3:R3-1:R1|PEPTIDE1,CHEM1,9:R3-1:R2|PEPTIDE1,PEPTIDE1,4:R3-17:R3$$$V2.0): below 5%; `CC[C@H](C)[C@@H]1NC(=O)[C@H](CC(=O)O)NC(=O)[C@@H]2CCCN2C(=O)[C@H](CC(N)=O)NC(=O)[C@H](CC(N)=O)NC(=O)[C@H](C(C)C)NC(=O)[C@H](CO)NC(=O)[C@@H]2CSSC[C@@H]3NC(=O)CNC(=O)[C@@H](N)CCNC(=O)CC[C@@H](C(N)=O)NC(=O)[C@H](CSSC[C@H](NC3=O)C(=O)N[C@@H](CN)C(=O)N[C@@H](Cc3cnc[nH]3)C(=O)N3CCC[C@H]3C(=O)N[C@@H](C)C(=O)N2)NC1=O` (HELM PEPTIDE1{[Dab].G.C.C.[NC[C@H](N[*:1])C(=O)[*:2]].H.P.A.C.S.V.N.N.P.D.I.C.E.[am]}$PEPTIDE1,PEPTIDE1,1:R3-18:R3|PEPTIDE1,PEPTIDE1,3:R3-9:R3|PEPTIDE1,PEPTIDE1,4:R3-17:R3$$$V2.0): below 5%.
Consider `CC[C@H](C)[C@@H]1NC(=O)[C@H](CC(=O)O)NC(=O)[C@@H]2CCCN2C(=O)[C@H](CC(N)=O)NC(=O)[C@H](CC(N)=O)NC(=O)[C@H](C(C)C)NC(=O)[C@H](CO)NC(=O)[C@@H]2CSCSC[C@@H]3NC(=O)CNC(=O)[C@@H](N)CCC(=O)NC[C@@H](C(N)=O)NC(=O)[C@H](CSSC[C@H](NC3=O)C(=O)N[C@@H](CN)C(=O)N[C@@H](Cc3cnc[nH]3)C(=O)N3CCC[C@H]3C(=O)N[C@@H](C)C(=O)N2)NC1=O` (H-EGCC[Dap]HPACSVNNPDIC[Dap]-NH2; lactam 1-18; linker 3-9 via CH2; disulfide 4-17), for which the remaining at 24 h in data set [2] was 57.3%.
As to `CC[C@H](C)[C@@H]1NC(=O)[C@H](CC(=O)O)NC(=O)[C@@H]2CCCN2C(=O)[C@H](CC(N)=O)NC(=O)[C@H](CC(N)=O)NC(=O)[C@H](C(C)C)NC(=O)[C@H](CO)NC(=O)[C@@H]2CSSC[C@H](NC(=O)CN)C(=O)N[C@@H](CCC(=O)NCC[C@@H](C(N)=O)NC1=O)C(=O)N[C@@H](CN)C(=O)N[C@@H](Cc1cnc[nH]1)C(=O)N1CCC[C@H]1C(=O)N[C@@H](C)C(=O)N2` (HELM PEPTIDE1{G.C.E.[NC[C@H](N[*:1])C(=O)[*:2]].H.P.A.C.S.V.N.N.P.D.I.[Dab].[am]}$PEPTIDE1,PEPTIDE1,2:R3-8:R3|PEPTIDE1,PEPTIDE1,3:R3-16:R3$$$V2.0), in data set [1], the inhibition is below 5%.
Regarding `CC[C@H](C)[C@@H]1NC(=O)[C@H](CC(=O)O)NC(=O)[C@@H]2CCCN2C(=O)[C@H](CC(N)=O)NC(=O)[C@H](CC(N)=O)NC(=O)[C@H](C(C)C)NC(=O)[C@H](CO)NC(=O)[C@@H]2CSSC[C@H](NC(=O)CN)C(=O)N[C@@H](Cc3cn(nn3)CC[C@@H](C(N)=O)NC1=O)C(=O)N[C@@H](CN)C(=O)N[C@@H](Cc1cnc[nH]1)C(=O)N1CCC[C@H]1C(=O)N[C@@H](C)C(=O)N2` (H-GC[Pra][Dap]HPACSVNNPDI[Aha]-NH2; disulfide 2-8; triazole 3-16), the inhibition in data set [1] is below 15%.
